Entries after “also recorded” stand apart in the source; their conditions may differ. Peptide text beside a SMILES is read from it. * marks the point of attachment. βNA = c1ccc2cc(N*)ccc2c1
Experiments:
primary NK cells [1] = assay: Confocal imaging of primary NK cells exposed to PIKfyve inhibitors (LAMP-1 / granzyme B staining); format: cell-based, human; conditions: for secretory lysosome size: 1 μM overnight, LAMP-1 staining, FIG. 10
Protocol: Sorted NK cells were prepared for confocal microscopy using fixation/permeabilization (BD Bioscience Cytofix/Cytoperm) prior to intracellular staining with mouse anti-human granzyme B-A647 (GB11), rabbit anti-human pericentrin (Ab4448) followed by Donkey anti-Rabbit IgG Alexa555 and donkey anti-mouse-A568. After staining, the fixed cells were adhered to glass cover slips using Cell Tak (Corning) and mounted using Pro-long Gold Antifade with DAPI. The cells were examined with a Zeiss LSM 710 confocal microscope (Carl Zeiss Microlmaging GmbH) equipped with an Ar-Laser Multiline (458/488/514 nm), a DPSS-561 10 (561 nm), a Laser diode 405-30 CW (405 nm), and a HeNe-laser (633 nm). The objective used was a Zeiss plan-Apochromat 63×NA/1.4 oil DICII. Image processing and analysis were performed with basic software ZEN 2011 (Carl Zeiss Microlmaging GmbH) and Imaris 7.7.2 (Bitplane AG). Confocal z-stacks were deconvolved using Huygens Essential 14.06 (Scientific Volume Imaging b.v.), and visualized with Imaris.
Cells were surface-stained with anti-human HLA-ABC antibody (W6/32, BioLegend) prior to settlement on CelITak-coated slides for 20 minutes, followed by fixation with 4% paraformaldehyde. Intracellular staining was performed by incubation with anti-human LAMP-1 (Ab24170, Abcam) for 4h, followed by donkey anti-rabbit-A488 antibody (abcam) and donkey anti-mouse-A568 antibody (Abcam) and Hoechst33342.
Where indicated, cells were stained with mouse anti-human granzyme B-A647 (GB11) instead of anti-HLA-ABC, followed by donkey anti-mouse-A568.

NK cells [2] = assay: Degranulation (CD107a) and intracellular IFN-γ functional assay, NK cells stimulated with K562 target cells; format: cell-based, human; conditions: for IFN-γ response to K562 cells / degranulation (CD107a) in response to K562 cells: 5 h, 1:1 ratio, GPN 50 μM, mefloquine 10 μM, siramesine 10 μM, vacuolin-1 10 μM
Protocol: (§1) Functional assays were performed at 37° C. in complete medium (RPMI+10% FCS) for the times indicated. Purified NK cells were incubated with K562 target cells for 5 hours at a ratio of 1:1 in the presence of anti-CD107a-FITC (biolegend) for degranulation assays, or with the addition of Brefeldin A (GolgiPlug BD) for degranulation plus intracellular cytokine assays. Treatment with lysosomotropic reagents were performed for the duration of the assay using the following final concentrations; glycyl-L-phenylalanine-β-naphthylamide (GPN, 50 μM), mefloquine (10 μM), siramesine (10 μM), vacuolin-1 (10 μM). Stimulation with PMA (1 μg/mL) and ionomycin (0.5 μM), or with thapsigargin (1 μM) and/or U18666a (2 μg/mL) were performed for the times indicated, and the cells were stained for CD107a surface expression post-stimulation.

NK cells [3] = assay: Viability of NK cells exposed to lysosomotropic compounds; format: cell-based, human; conditions: at the doses tested, FIG. 15A
NK cells [4] = assay: CD107a mobilization after PMA/Ionomycin stimulation; format: cell-based, human; conditions: indicated doses of GPN, FIG. 14D-E
Protocol: as §1

primary NK cells [5] = assay: Phospho-flow cytometry after CD16 ligation; format: cell-based, human; conditions: 1 h pre-treatment, GPN 50 μM or vacuolin-1 10 μM
Protocol: Functional assays for phospho-flow cytometry were performed at 37° C. in complete medium in NK cell suspensions between 5-10 M/mL for 20 min. Cells were pre-treated for 1 h using GPN (50 μM) or vacuolin-1 (10 μM), after which biotinylated CD16 (Biolegend, clone 3G8) was added to final concentrations of 5 μg/mL each. After 1 min, the aliquot for the 0 min (unstimulated) sample was taken out and mixed with Fix Buffer I (BD Biosciences). After one additional minute, the stimulation was started by crosslinking the biotinylated antibodies via 50 μg/mL avidin (Thermo Fischer Scientific) and the aliquots for the 5 min, 10 min and 20 min samples were transferred into Fix Buffer I (BD bioscience) at the corresponding time points. Cells were fixed at 37° C. for 10 min, washed and re-suspended in PBS. To allow combination of the differently stimulated samples into one, two dimensional fluorescent cell barcoding (FCB) was utilized. Samples were stained in distinct concentrations of amine-reactive pacific blue succinimidyl ester (Thermo Fisher Scientific) for the time points (0 min-0.69 ng/mL, 5 min-6.25 ng/mL, 10 min-25 ng/mL and 20 min-100 ng/mL) in combination with amine-reactive pacific orange succinimidyl ester (Thermo Fisher Scientific) for the different stimulations (control—10 ng/mL, GPN—100 ng/mL and vacuolin-1-500 ng/mL). After 20 min at RT, samples were washed twice in wash solution (PBS supplemented with 1% FCS and 0.09% sodium azide), combined, permeabilized (Perm Buffer III, BD Biosciences) and stored at −80° C. For thawing, samples were incubated 20 min on ice. Then, they were washed in wash solution and stained with Alexa Fluor 647-conjugated phospho epitope-specific antibodies against ZAP70/syk (pY319/pY352), Lck (pY505), Erk1/2 (pT202/pY204) (BD Bioscience), NF-κB p65 (pS536) (Cell Signaling Technologies) or isotype control IgG1K (BD Biosciences) for 30 min at RT. After washing data was acquired on an LSR Fortessa (BD Biosciences) and analysed in with FlowJo v10.0.8 (TreeStar).

NK cells [6] = assay: Granzyme B expression by flow cytometry after IL-15 or IL-21 stimulation with or without signalling inhibitors; format: cell-based, human
From the text: Isolated PBMC were stained for flow cytometric analysis using an appropriate combination of the following antibodies, followed by the name of the clone in brackets: CD14-V500 (M5E2), CD19-V500 (HIB19), CD3-V500 (UCHT1), CD56 ECD (N901) CD57-PB (HCD57), CD57 purified (TB01), anti-mouse-IgM-EF650 (II/41), NKG2A-PE, APC or APC.AF750 (Z199), CD16-BV785 (3G8), KIR2DL3-FITC, KIR2DL1-APC or APC-Vio770 (REA284), KIR3DL1-AF700 or BV421 (D×9), KIR2DS4-QD585 (1847), KIR3DL2-biotin (D×31), KIR2DL2/L3/S2-PE.Cy5.5 (GL183), KIR2DL1/S1-PE.Cy7 (EB6) or PE-Vio770 (11 PB6). Dead cells were labelled using live/dead aqua (Life technologies). Biotin-conjugated antibodies were visualized using streptavidin-Qdot 585 or 605 (Life technologies). After surface staining, cells were fixed and permeabilized using a fixation/permeabilization kit (BD Bioscience Cytofix/Cytoperm) prior to intracellular staining with anti-granzyme B-A700 (GB11). Samples were acquired using an LSRII flow cytometer (Becton Dickinson) and data was analysed using FlowJo V10.0.8 (TreeStar).

NK cells [7] = conditions: positive control, known property; cited from earlier work

Cc1cccc(/C=N/Nc2cc(N3CCOCC3)nc(OCCc3ccccn3)n2)c1 [apilimod]
secretory lysosome size (primary NK cells [1]): increase in secretory lysosome size

NCC(=O)N[C@@H](Cc1ccccc1)C(=O)Nc1ccc2ccccc2c1 [GPN, glycyl-L-phenylalanine-beta-naphthylamide] (H-Gly-Phe-βNA)
IFN-γ response to K562 cells (NK cells [2]): reduced corresponding IFN-γ expression | degranulation (CD107a) in response to K562 cells (NK cells [2]): abrogate specific degranulation | general cellular toxicity (NK cell viability) (NK cells [3]): none of these compounds showed any general cellular toxicity | threshold for PMA/I-induced activation in self-specific NK cells (NK cells [4]): reversed the higher threshold for PMA/I-induced activation | propagation of down-stream signals, in particular NF-κB (primary NK cells [5]): decreased | upstream signalling (ZAP70 and Lck phosphorylation) following ligation of CD16 (primary NK cells [5]): minimal effect

OC(c1cc(C(F)(F)F)nc2c(C(F)(F)F)cccc12)C1CCCCN1 (stereo not shown) [Mefloquine]
general cellular toxicity (NK cell viability) (NK cells [3]): none of these compounds showed any general cellular toxicity

IL-15: cytokine used to prime NK cells
granzyme B response to cytokine priming, CD56bright NK cells (NK cells [6]; CD56bright NK cells): responded to priming by IL-15 | granzyme B response to cytokine stimulation, CD56dim NK cells (NK cells [6]): increases in the level of granzyme B

COC(=O)[C@H](CC(C)C)NC(=O)[C@@H](N)CC(C)C [LeuLeuOMe, L-Leucyl-L-leucine methyl ester]
induction of apoptosis in immune cells (NK cells [7]): known to induce apoptosis in immune cells

Ic1cccc(/C=N/Nc2nc(N3CCOCC3)nc(N(c3ccccc3)c3ccccc3)n2)c1 [vacuolin-1]
secretory lysosome size (primary NK cells [1]): increase in secretory lysosome size | clustering of granzyme B within secretory lysosomes (primary NK cells [1]; vacuolin-1 treatment, FIG. 11): clustering of Granzyme B inside the secretory lysosomes; also recorded: cause granzyme B to cluster within the large secretory lysosomes formed | IFN-γ response to K562 cells (NK cells [2]): enhanced | degranulation (CD107a) in response to K562 cells (NK cells [2]): enhanced | NK cell function, compound alone (NK cells [2]; resting NK cells, no target cell stimulation): had no effect | propagation of down-stream signals, in particular NF-κB (primary NK cells [5]): increased | upstream signalling (ZAP70 and Lck phosphorylation) following ligation of CD16 (primary NK cells [5]): minimal effect

CCC(=O)N1CCN(c2ccc(-n3c(=O)ccc4cnc5ccc(-c6cnc7ccccc7c6)cc5c43)cc2C(F)(F)F)CC1 [Torin-1]
cytokine-induced increase in granzyme B (NK cells [6]; 24 h IL-15 or IL-21, self- and non-self-specific NK cells): reversed the cytokine-induced increase in granzyme B | pre-existing constitutive levels of granzyme B (NK cells [6]; before cytokine stimulation, FIG. 6): did not further reduce

IL-21: cytokine used to prime NK cells
granzyme B response to cytokine stimulation, CD56dim NK cells (NK cells [6]): increases in the level of granzyme B

Fc1ccc(-n2cc(CCCCN3CCC4(CC3)OCc3ccccc34)c3ccccc32)cc1 [Siramesine]
general cellular toxicity (NK cell viability) (NK cells [3]): none of these compounds showed any general cellular toxicity

— patent publication US20190225941A1, “MODULATION OF FUNCTION OF IMMUNE EFFECTOR CELLS” (OSLO UNIVERSITETSSYKEHUS HF, priority 2016, published 2019)
